Patent US20120282377A1, “Methods and Formulations for Inhibiting Degradation of Photosensitive Sweeteners and Sweetener Enhancers” (priority 2011, published 2012)
Several values for one entry are separate records, joined by “and”; a condition that tells them apart may be missing. Equal values may be shown once.

Tests used:
Assay type in all cases: physicochemical
[1] = Stability of monatin in lemon lime matrix under ultraviolet light, Atlas sun-test chamber (Example 2); conditions: for monatin sample degraded: four days equivalent of ultraviolet light exposure (24 hours in UV chamber)
Description: High-potency sweetener monatin was evaluated for stability to sunlight exposure when formulated into a beverage packaged in PET packaging (bottle) with and without a UV barrier or in a dark-colored PET packaging. This study was designed to evaluate the stability of RR stereoisomer of monatin under normal visible light and under ultraviolet light in the Atlas sun-test chamber using normal PET bottles, PET packaging with a UV barrier and dark PET packaging. For this purpose monatin solution was made in a lemon lime carbonated beverage matrix without any flavor added.
The RR isomer of monatin was used for the present study after satisfactory HPLC and LC-MS data analyses confirmed that this sample greater than 95% pure. A lemon lime beverage matrix without flavor was used as the matrix base. The concentration of monatin in the matrix was 30 ppm.
Due to lack of any RR-monatin standard, its stereoisomer, SS-monatin was used for HPLC calibration curve preparation as it appears at the same retention time as RR-monatin.
Quantitative analysis of monatin via UV detection in LC-MS was done for all the samples. The methodology employed a 12% acetonitrile (solvent A) in 50 mM ammonium formate (pH 4.0, solvent B) for 5 min followed by a linear gradient to 34% acetonitrile over 5 min; Detection: UV @278 nm].
1) regular PET bottles, 300 mL or 8 Oz (bottle type A). 2) PET bottles with a UV barrier, 600 mL or 16 Oz, fresh un-used bottle* (bottle type B). * It was shown that the UV barrier capacity decreased after one use in the commercially bought 20 Oz PET bottles with a UV barrier (See the UV scan data in FIG. 1). 3) dark-colored PET bottles (bottle type C). UV light source: Atlas Sun-test chamber. Under program 1 of sun-test chamber, 6 hr of exposure is equal to one day of sun-light exposure in Arizona or 400 Langley at 40° C. Control Experiment: UV irradiation by using only a lemon lime matrix (no monatin added) in regular PET bottles and running the sun-test chamber for four days equivalent exposure was carried out. The purpose of this experiment was to make sure no artifact arises from lemon lime matrix in the monatin absorption region. No new signals were identified. 13 bottles were used in the monatin-lemon-lime matrix experiments: 1 regular PET at zero time and 3 regular PET bottles; 2 PET bottles with a UV barrier bottles and 7 dark-colored PET bottles. Zero time sample protocol: 330 mL PET bottle was filled up to ⅓^rd full, flushed with nitrogen, covered with foil and then kept at 4° C. Sample aliquot protocol: 5 mL was taken out in a 20 mL opaque glass scintillation vial. Both vial and experimental bottle were flushed with nitrogen. The vial was covered with foil and kept at 4° C.
LC-MS analysis was carried out on all the samples in the same day as their maturation. A new monatin calibration curve was made every day with the SS-monatin sample.
For these experiments samples were kept in the Atlas sun-test chamber where each 6 hr exposure was equivalent to one day of sun exposure in Arizona (400 Langley). […] In particular, it was noted that under UV light in regular PET, monatin degrades by 70% in just one day's exposure.

[2] = Odor analysis of UV and light exposed monatin samples by 6 panelists; parameters: key to Odor analysis: (+) = no odor or minor odor; (−) = distinct or unpleasant odor; conditions: for Odor analysis: 30 PPM in lemon lime matrix pH 3.35, panelists 1-6
Description: A survey of odor and visual analysis of the UV and light exposed samples of the monatin samples was conducted by 6 panelists. Samples for analysis were solution of monatin in a lemon lime matrix without flavor at pH 3.35 (30 PPM monatin) exposed to visible for three days or UV light for 24 hours (equivalent of four days sun exposure).

[3] = Monatin stability in lemon-lime beverage with or without EMIQ, UV irradiation (Example 4)
Description: The polyphenol enzymatically-modified isoquercitrin (EMIQ) was used to stabilize monatin (31 mg/L) in a lemon lime carbonated beverage formulation contained in either a regular (clear, colorless) PET bottle or a dark-colored PET bottle. The level of EMIQ in the samples was 7.5 PPM. A control formulation was used that contained no EMIQ. The samples were exposed to UV light or ambient indoor laboratory fluorescent lighting for up to 72 hours. UV light was administered in a UV chamber at 40° C. with approximately 400 Langley per 6 hours of exposure. The results listed below indicate that the monatin was very unstable in the control formulations with only 1.4% monatin remaining after 24 hours exposure to UV light. EMIQ provided protection from degradation of the monatin. When packaged in a dark-colored PET bottle approximately 89% monatin remained in the formulation after exposure to UV light for 24 hours. When exposed to ambient indoor laboratory lighting for 72 hours over 90% monatin remained in both clear and dark PET bottles containing the EMIQ polyphenol. All analyses were done by HPLC/MS.

[4] = 0 hours of exposure in UV chamber
[5] = 6 hours of exposure in UV chamber
[6] = 12 hours of exposure in UV chamber
[7] = 18 hours of exposure in UV chamber
[8] = 24 hours of exposure in UV chamber
[9] = dark-colored PET, with EMIQ 7.5 PPM, UV exp. 0 hours
[10] = dark-colored PET, with EMIQ 7.5 PPM, UV exp. 6 hours
[11] = dark-colored PET, with EMIQ 7.5 PPM, UV exp. 12 hours
[12] = dark-colored PET, with EMIQ 7.5 PPM, UV exp. 18 hours
[13] = dark-colored PET, with EMIQ 7.5 PPM, UV exp. 24 hours
[14] = regular PET, no EMIQ, UV exp. 0 hours
[15] = regular PET, no EMIQ, UV exp. 6 hours
[16] = regular PET, no EMIQ, UV exp. 12 hours
[17] = regular PET, no EMIQ, UV exp. 18 hours
[18] = regular PET, no EMIQ, UV exp. 24 hours
[19] = regular PET, with EMIQ 7.5 PPM, UV exp. 0 hours
[20] = regular PET, with EMIQ 7.5 PPM, UV exp. 6 hours
[21] = regular PET, with EMIQ 7.5 PPM, UV exp. 12 hours
[22] = regular PET, with EMIQ 7.5 PPM, UV exp. 18 hours
[23] = regular PET, with EMIQ 7.5 PPM, UV exp. 24 hours

SMILES: NC(CC(O)(Cc1c[nH]c2ccccc12)C(=O)O)C(=O)O (stereo not drawn) [Monatin, 2-amino-4-carboxy-4-hydroxy-5-(3-indolyl)-pentanoic acid]
- Conc. in mg/L RR-Monatin in Lemon Lime matrix in Normal PET Bottle (330 mL) [1, 4]: 31.1 mg/L
- Conc. in mg/L RR-Monatin in Lemon Lime matrix in UV barrier PET Bottle (600 mL) [1, 4]: 31.1 mg/L
- Conc. in mg/L RR-Monatin in Lemon Lime matrix in dark-colored PET Bottle (75 mL) [1, 4]: 31.1 mg/L
- Conc. in mg/L RR-Monatin in Lemon Lime matrix in Normal PET Bottle (330 mL) [1, 5]: 9.0 mg/L
- Conc. in mg/L RR-Monatin in Lemon Lime matrix in UV barrier PET Bottle (600 mL) [1, 5]: 27.6 mg/L
- Conc. in mg/L RR-Monatin in Lemon Lime matrix in dark-colored PET Bottle (75 mL) [1, 5]: 29.2 mg/L
- Conc. in mg/L RR-Monatin in Lemon Lime matrix in Normal PET Bottle (330 mL) [1, 6]: 2.1 mg/L
- Conc. in mg/L RR-Monatin in Lemon Lime matrix in UV barrier PET Bottle (600 mL) [1, 6]: 22.4 mg/L
- Conc. in mg/L RR-Monatin in Lemon Lime matrix in dark-colored PET Bottle (75 mL) [1, 6]: 29.1 mg/L
- Conc. in mg/L RR-Monatin in Lemon Lime matrix in Normal PET Bottle (330 mL) [1, 7]: 0.3 mg/L
- Conc. in mg/L RR-Monatin in Lemon Lime matrix in UV barrier PET Bottle (600 mL) [1, 7]: 9.8 mg/L
- Conc. in mg/L RR-Monatin in Lemon Lime matrix in dark-colored PET Bottle (75 mL) [1, 7]: 29.0 mg/L
- Conc. in mg/L RR-Monatin in Lemon Lime matrix in Normal PET Bottle (330 mL) [1, 8]: 0.0 mg/L
- Conc. in mg/L RR-Monatin in Lemon Lime matrix in UV barrier PET Bottle (600 mL) [1, 8]: 3.6 mg/L
- Conc. in mg/L RR-Monatin in Lemon Lime matrix in dark-colored PET Bottle (75 mL) [1, 8]: 28.6 mg/L
- degradation upon exposure to UV light ([1]; Regular PET bottles and PET with UV barrier bottles): did not prevent degradation of monatin
- monatin sample degraded ([1]; UV barrier PET bottle): ~90%
- monatin degrades ([1]; UV light, regular PET, one day's exposure): 70%
- monatin sample degraded ([1]; dark-colored PET bottle): less than 10%
- degradation, UV light versus visible light ([1]; lemon-lime matrix): degrade faster upon UV light exposure than upon visible light exposure
- degradation upon exposure to UV light ([1]; monatin solution in dark-colored PET bottles): prevented most of the monatin from degrading
- monatin sample degraded ([1]; normal PET bottle): all of the monatin sample in the normal PET bottle had degraded
- Odor analysis ([2]; Dark-colored PET bottle, UV light 24 hours): − and +
- Odor analysis ([2]; Dark-colored PET bottle, visible light three days): − and +
- Odor analysis ([2]; PET with UV barrier, UV light 24 hours): − and +
- Odor analysis ([2]; PET with UV barrier, visible light three days): +
- Odor analysis ([2]; Regular PET, UV light 24 hours): − and +
- Odor analysis ([2]; Regular PET, visible light three days): +
- odor change after UV exposure ([2]; samples in the dark-colored PET bottles): no or minimal odor change
- % Monatin remaining [3, 9]: 100%
- Conc. of Monatin [3, 9]: 30.93 mg/L
- % Monatin remaining [3, 10]: 92.4% and 92.3%
- Conc. of Monatin [3, 10]: 28.59 mg/L and 28.53 mg/L
- % Monatin remaining [3, 11]: 90.7% and 90.9%
- Conc. of Monatin [3, 11]: 28.05 mg/L and 28.10 mg/L
- % Monatin remaining [3, 12]: 90.7% and 90.5%
- Conc. of Monatin [3, 12]: 28.04 mg/L and 28.00 mg/L
- % Monatin remaining [3, 13]: 89.0% and 89.3%
- Conc. of Monatin [3, 13]: 27.51 mg/L and 27.62 mg/L
- % Monatin remaining ([3]; dark-colored PET, with EMIQ 7.5 PPM, UV exp. 24 hours, listed as monatin): approximately 89%
- % Monatin remaining [3, 14]: 100%
- Conc. of Monatin [3, 14]: 30.76 mg/L and 30.79 mg/L
- % Monatin remaining [3, 15]: 68.6%
- Conc. of Monatin [3, 15]: 21.13 mg/L and 21.11 mg/L
- % Monatin remaining [3, 16]: 9.4% and 9.3%
- Conc. of Monatin [3, 16]: 2.89 mg/L and 2.87 mg/L
- % Monatin remaining [3, 17]: 1.7% and 1.6%
- Conc. of Monatin [3, 17]: 0.54 mg/L and 0.51 mg/L
- % Monatin remaining [3, 18]: 1.4%
- Conc. of Monatin [3, 18]: 0.43 mg/L and 0.44 mg/L
- % Monatin remaining [3, 19]: 100%
- Conc. of Monatin [3, 19]: 30.93 mg/L
- % Monatin remaining [3, 20]: 83.1% and 82.9%
- Conc. of Monatin [3, 20]: 25.71 mg/L and 25.62 mg/L
- % Monatin remaining [3, 21]: 69.3%
- Conc. of Monatin [3, 21]: 21.42 mg/L and 21.44 mg/L
- % Monatin remaining [3, 22]: 52.0% and 51.7%
- Conc. of Monatin [3, 22]: 16.07 mg/L and 15.99 mg/L
- % Monatin remaining [3, 23]: 34.9% and 34.8%
- Conc. of Monatin [3, 23]: 10.80 mg/L and 10.76 mg/L
